Data published in ChEMBL document CHEMBL1155466, “Structure-activity relationships of 6-methyl-benzo[b]thiophene-2-carboxylic acid (1-[(S)-1-benzyl-4-[4-(tetrahydropyran-4-ylmethyl)piperazin-1-yl]butylcarbamoyl]cyclopentyl)amide, potent antagonist of the neurokinin-2 receptor” (J Med Chem, 2010).
Active and inactive are the calls of the source. The rule behind the calls is not given here.

How the values were obtained:
[1] = Apparent permeability from apical to basolateral side of human Caco-2 cells at 100 uM
Substance-K receptor [2] = molecular target: T1, Substance-K receptor (Homo sapiens, UniProt P21452); assay: Antagonist activity at NK2 receptor in human urinary bladder assessed as inhibition of [beta-Ala8]NKA(4-10)-induced tissue contractions; assay type: functional; conditions: read-out: pA2 (converted)
T1 sequence (P21452 whole entry): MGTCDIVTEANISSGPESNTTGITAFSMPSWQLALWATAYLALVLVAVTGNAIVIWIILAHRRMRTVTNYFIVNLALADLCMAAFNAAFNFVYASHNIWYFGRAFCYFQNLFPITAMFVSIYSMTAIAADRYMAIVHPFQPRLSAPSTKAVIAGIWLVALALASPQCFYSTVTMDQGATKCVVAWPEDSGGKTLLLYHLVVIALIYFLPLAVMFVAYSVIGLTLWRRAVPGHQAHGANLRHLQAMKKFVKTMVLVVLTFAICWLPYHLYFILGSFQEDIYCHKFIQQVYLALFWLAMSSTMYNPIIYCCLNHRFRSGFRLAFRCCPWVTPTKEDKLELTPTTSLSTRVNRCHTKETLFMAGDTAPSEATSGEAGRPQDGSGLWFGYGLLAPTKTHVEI

Cavia porcellus = assay: Inhibition of [beta-Ala8]NKA(4-10)-induced colonic contractions in Dunkin-Hartley guinea pig at 3 umol/kg, iv after 4 hrs relative to control; assay type: functional
[3] = molecular target: T2, Substance-K receptor (Cavia porcellus) (UniProt Q64077); assay: Antagonist activity at NK2 receptor in Dunkin-Hartley guinea pig colon smooth muscle assessed as inhibition of [beta-Ala8]NKA(4-10)-induced tissue contraction in presence of NK1 receptor antagonist SR-140333; assay type: functional, tissue-based
T2 sequence (whole entry): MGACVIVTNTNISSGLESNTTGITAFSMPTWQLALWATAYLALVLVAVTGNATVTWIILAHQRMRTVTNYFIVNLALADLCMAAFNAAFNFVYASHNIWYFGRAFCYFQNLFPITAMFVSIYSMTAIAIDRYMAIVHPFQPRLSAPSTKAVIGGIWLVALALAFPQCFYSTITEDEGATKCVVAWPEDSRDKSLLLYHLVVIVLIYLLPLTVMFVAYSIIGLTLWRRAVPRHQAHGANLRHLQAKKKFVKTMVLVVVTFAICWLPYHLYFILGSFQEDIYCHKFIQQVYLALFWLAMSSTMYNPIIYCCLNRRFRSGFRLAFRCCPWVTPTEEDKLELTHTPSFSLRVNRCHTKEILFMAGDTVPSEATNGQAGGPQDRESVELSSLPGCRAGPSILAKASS

Homo sapiens = assay: Inhibition of [beta-Ala8]NKA(4-10)-induced colonic contractions […] at 10 umol/kg, id relative to control; assay type: functional, organism-based
Substance-K receptor [4] = molecular target: T1, Substance-K receptor; assay: Displacement of [3H]neurokinin A from human NK2 receptor

Row | SMILES | Papp A→B at 100 µM [1] [×10⁻⁶ cm/s] | Kb (Substance-K receptor [2]) [nM] | pKb [3] | Ki (Substance-K receptor [4]) [nM] | Imax (Cavia porcellus) [%] | Activity (Homo sapiens)
1 | Cc1ccc2cc(C(=O)NC3(C(=O)N[C@@H](CCCN4CCN(CC5CCOCC5)CC4)Cc4ccccc4)CCCC3)sc2c1 | 11.2 | 0.2 | 8.6 |  | 100 | Active
2 | Cc1ccc(-c2ccc(C(=O)NC3(C(=O)N[C@@H](CCCN4CCN(CC5CCOCC5)CC4)Cc4ccccc4)CCCC3)cc2)cc1 | 7.1 |  | 7.8 | 0.631 | 60 | 
3 | O=C(NC1(C(=O)N[C@@H](CCCN2CCN(CC3CCOCC3)CC2)Cc2ccccc2)CCCC1)c1ccc2ccccc2c1 | 14.6 |  | 8.2 | 0.316 |  | 
4 | O=C(NC1(C(=O)N[C@@H](CCCN2CCN(CC3CCOCC3)CC2)Cc2ccccc2)CCCC1)c1ccc(-c2ccccc2)cc1 | 13.6 |  | 8.7 | 0.501 | 86 | 
5 | Cc1ccc2cc(C(=O)NC3(C(=O)N[C@@H](CCCN4CCN(Cc5ccsc5)CC4)Cc4ccccc4)CCCC3)sc2c1 |  |  | 8.2 | 0.158 | 88 | 
6 | Cc1ccc2cc(C(=O)NC3(C(=O)N[C@@H](CCCN4CCN(c5ncccn5)CC4)Cc4ccccc4)CCCC3)sc2c1 |  |  | 8 | 0.794 | 63 | 

Second part, led by results:

Row | Papp A→B at 100 µM [1] [×10⁻⁶ cm/s] | Kb (Substance-K receptor [2]) [nM] | pKb [3] | Ki (Substance-K receptor [4]) [nM] | SMILES | Imax (Cavia porcellus) [%] | Activity (Homo sapiens)
7 | 8.6 |  | 7.4 | 0.631 | COc1ccc2oc(C(=O)NC3(C(=O)N[C@@H](CCCN4CCN(CC5CCOCC5)CC4)Cc4ccccc4)CCCC3)cc2c1 | 98 | 
8 | 20.2 |  | 8.2 | 0.631 | O=C(NC1(C(=O)N[C@@H](CCCN2CCN(CC3CCOCC3)CC2)Cc2ccccc2)CCCC1)c1cc2ccccc2o1 | 65 | 
9 | 13.7 |  | 7.6 | 0.251 | O=C(NC1(C(=O)N[C@@H](CCCN2CCN(CC3CCOCC3)CC2)Cc2ccccc2)CCCC1)c1cc2cc(Cl)ccc2o1 | 100 | 
